Experimental data: publication PMC5298233, “Substrate-analogous inhibitors exert antimalarial action by targeting the Plasmodium lactate transporter PfFNT at nanomolar scale” (PLoS Pathogens, 2017)
Where two headings read alike, the source gives them in different places.

Assays:
[1] = tested on: P. falciparum 3D7; assay: Viability of cultured P. falciparum parasites (FACS parasitemia); format: cell-based, Plasmodium falciparum; conditions: for IC50: Plasmodium falciparum, 3D7, 48 h, read-out: IC50 (P. falciparum 3D7)
[2] = molecular target: T1, PfFNT (Plasmodium falciparum, UniProt O77389); assay: cell-based
[3] = tested on: MMV007839 resistant 3D7 parasites; assay: microbe, parasite or virus in culture; format: cell-based, Plasmodium falciparum; conditions: for IC50: Plasmodium falciparum, 3D7, read-out: IC50 (P. falciparum resist.)
[4] = molecular target: T1, PfFNT; assay: cell-based; conditions: for hit identification: inhibition of PfFNT transport at 10 μM: 1 mM substrate gradient, compound added 20 min prior; for inhibition at 10 µM: read-out: % Inhib.
[5] = molecular target: T2, rat MCT1 (Rattus norvegicus, UniProt P53987); assay: L-lactate transport inhibition of MCT1 expressed in yeast; format: cell-based
T2 sequence (P53987 1-494): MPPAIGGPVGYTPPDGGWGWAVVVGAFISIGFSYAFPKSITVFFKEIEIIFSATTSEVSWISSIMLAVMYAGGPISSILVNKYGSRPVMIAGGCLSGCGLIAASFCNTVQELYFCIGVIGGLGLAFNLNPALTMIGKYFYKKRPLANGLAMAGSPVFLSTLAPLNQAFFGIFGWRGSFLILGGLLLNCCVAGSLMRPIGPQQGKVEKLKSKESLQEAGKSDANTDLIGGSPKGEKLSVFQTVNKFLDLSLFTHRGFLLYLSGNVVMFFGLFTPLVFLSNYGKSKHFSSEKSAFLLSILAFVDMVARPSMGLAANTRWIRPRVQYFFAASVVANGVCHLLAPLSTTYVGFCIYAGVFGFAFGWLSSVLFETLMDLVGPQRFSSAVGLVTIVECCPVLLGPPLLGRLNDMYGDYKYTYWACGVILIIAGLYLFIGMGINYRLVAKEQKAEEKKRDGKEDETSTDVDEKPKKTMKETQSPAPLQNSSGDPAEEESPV

[6] = molecular target: T3, BbFNT S93G (Babesia bovis, UniProt A7AX62, S93G); assay: cell-based; conditions: read-out: IC50 (BbFNT S93G / yeast)
T3 sequence (A7AX62 1-279 S93G): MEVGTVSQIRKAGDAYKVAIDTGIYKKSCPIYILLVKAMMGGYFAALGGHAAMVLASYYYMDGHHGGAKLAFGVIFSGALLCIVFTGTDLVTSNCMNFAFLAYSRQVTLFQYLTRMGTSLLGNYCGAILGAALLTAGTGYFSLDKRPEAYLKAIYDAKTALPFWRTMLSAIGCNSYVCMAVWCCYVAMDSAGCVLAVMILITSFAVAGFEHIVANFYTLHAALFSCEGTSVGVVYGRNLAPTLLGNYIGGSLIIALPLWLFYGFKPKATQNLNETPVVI

[7] = molecular target: T4, BbFNT (Babesia bovis, UniProt A7AX62); assay: cell-based; conditions: wildtype BbFNT; read-out: IC50 (BbFNT / yeast)
T4 sequence (A7AX62 1-279): T3 sequence (A7AX62 1-279 S93G)

[8] = molecular target: T1, PfFNT; conditions: earlier determined; read-out: affinity of lactate to PfFNT (Km); cited from earlier work
[9] = molecular target: T1, PfFNT; conditions: read-out: IC50 on PfFNT; cited from earlier work
[10] = IC50 (PfFNT / yeast), 20 min incubation with compound, 1 mM L-lactate
[11] = IC50 (PfFNT / yeast), half-maximal lactate transport rate, 20 min treatment

T1 sequence (O77389 whole entry): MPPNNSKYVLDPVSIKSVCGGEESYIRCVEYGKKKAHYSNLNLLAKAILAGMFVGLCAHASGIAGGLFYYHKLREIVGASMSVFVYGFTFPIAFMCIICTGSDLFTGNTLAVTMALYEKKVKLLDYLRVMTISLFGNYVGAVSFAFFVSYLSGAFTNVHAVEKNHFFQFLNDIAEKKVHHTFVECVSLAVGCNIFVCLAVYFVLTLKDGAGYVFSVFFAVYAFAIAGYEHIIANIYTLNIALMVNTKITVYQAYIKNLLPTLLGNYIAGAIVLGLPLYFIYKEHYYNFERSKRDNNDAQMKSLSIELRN

Structure (SMILES): CCO/C(=C\C(=O)c1ccc(OC)cc1)C(F)(F)C(F)(F)F [BH-296 ethyl ester prodrug]
- IC50 [1]: 9.3 ± 1.4 µM

Structure (SMILES): COc1ccc(C(=O)/C=C(\O)C(F)(F)C(F)(F)F)cc1 [BH-296]
- IC50 [2, 10]: 0.14 ± 0.01 µM
- IC50 [1]: 3.6 ± 0.2 µM
- less efficient in P. falciparum culture ([1]; compared with PfFNT block in yeast / MMV007839): 25 times
- shift in IC50, resistant versus non-resistant parental parasites [3]: 2.5 fold
- IC50 [3]: 8.6 µM

Structure (SMILES): O=C1CC(O)(C(F)(F)C(F)(F)F)Oc2ccccc21 (stereo not drawn) [MMV000972]
- IC50 [2, 11]: 0.17 µM
- IC50 [1]: 1.7 µM
- hit identification: inhibition of PfFNT transport at 10 μM [4]: fully blocked
- inhibition at 10 µM [4]: 102%

Structure (SMILES): COc1ccc2c(c1)OC(O)(C(F)(F)C(F)(F)F)CC2=O (stereo not drawn) [MMV007839]
- Ki [2]: 1.4 µM
- IC50 [2, 11]: 0.17 µM
- IC50 ([2]; IC50 (PfFNT / yeast; 24 h treatment), compound added 24 h before the assay, last 18 h at 4°C): 0.015 µM
- higher affinity than the physiological substrate lactate ([2]; Ki versus lactate Km): > 60,000 times
- re-gain of PfFNT transport activity after removal of inhibitor (dissociation) ([2]; full and half-maximal inhibition, wash-out, up to 2 h): does not re-gain activity within 2 h
- IC50 [5]: 55 µM
- reduction of parasite growth ([1]; incubation at IC90 over night): 70%
- reduction of parasite growth ([1]; short period incubation at IC90 for 1 h): 17%
- IC50 [6]: 11 µM
- IC50 [3]: 35 µM
- hit identification: inhibition of PfFNT transport at 10 μM [4]: fully blocked
- inhibition at 10 µM [4]: 99.1%
- IC50 [7]: 150 µM

Structure (SMILES): CC(=O)C=C(O)C(F)(F)C(F)(F)F [Pharmacophore, 5,5,6,6,6-pentafluoro-4-hydroxyhex-3-en-2-one]
- IC50 [2, 10]: 1.9 µM

Structure (SMILES): COc1ccc2c(=O)cc(C(F)(F)C(F)(F)F)oc2c1 [[1]]
- IC50 [2, 10]: > 1000 µM

Structure (SMILES): COc1ccc2c(c1)OC(C)(C)CC2=O [[2]]
- IC50 [2, 10]: > 1000 µM

Structure (SMILES): O=C1CC(O)(C(F)(F)C(F)F)Oc2ccc(Cl)cc21 (stereo not drawn) [[3]]
- IC50 [2, 10]: 48 ± 2 µM

Structure (SMILES): COc1ccc2c(c1)C(=O)CC(O)(C(F)F)O2 (stereo not drawn) [[4]]
- IC50 [2, 10]: > 1000 µM

Structure (SMILES): COc1ccc2c(c1)OC(O)(C(F)(F)C(F)(F)F)C(C)C2=O (stereo not drawn) [[5]]
- IC50 [2, 10]: 145 ± 8 µM

Structure (SMILES): O/N=C1\CC(O)(C(F)(F)F)Oc2ccc(Cl)cc21 (stereo not drawn) [[6]]
- IC50 [2, 10]: 315 ± 63 µM

Structure (SMILES): O=C1CC(O)(C(F)F)Oc2ccccc21 (stereo not drawn) [[7]]
- IC50 [2, 10]: 280 ± 32 µM

Structure (SMILES): COc1ccc2c(c1)OC(O)(C(F)(F)F)CC2=O (stereo not drawn) [[8]]
- IC50 [2, 10]: 1.1 ± 0.1 µM

Structure (SMILES): COc1ccc2c(c1)OC(O)(C(F)(F)C(F)F)CC2=O (stereo not drawn) [[9]]
- IC50 [2, 10]: 0.36 ± 0.4 µM

Structure (SMILES): COc1ccc2c(c1)OC(O)(C(F)(F)C(F)(F)C(F)(F)F)CC2=O (stereo not drawn) [[10]]
- IC50 [2, 10]: 0.25 ± 0.02 µM
- IC50 [1]: 0.47 ± 0.1 µM

Structure (SMILES): O=C1CC(O)(C(F)(F)C(F)(F)C(F)(F)C(F)(F)F)Oc2ccccc21 (stereo not drawn) [[11]]
- IC50 [2, 10]: 4.9 ± 0.2 µM

Structure (SMILES): O=C1CC(O)(C(F)(F)C(F)(F)F)Oc2cc(Cl)ccc21 (stereo not drawn) [[12]]
- IC50 [2, 10]: 0.12 ± 0.01 µM
- IC50 [1]: 0.28 ± 0.05 µM

Structure (SMILES): CCOc1ccc2c(c1)OC(O)(C(F)(F)C(F)(F)F)CC2=O (stereo not drawn) [[13]]
- IC50 [2, 10]: 0.24 ± 0.01 µM
- IC50 [1]: 0.05 µM

Structure (SMILES): CC(C)Oc1ccc2c(c1)OC(O)(C(F)(F)C(F)(F)F)CC2=O (stereo not drawn) [[14]]
- IC50 [2, 10]: 0.4 ± 0.01 µM
- IC50 [1]: 0.1 µM

Structure (SMILES): O=C1CC(O)(C(F)(F)C(F)(F)F)Oc2cc(OCc3ccccc3)ccc21 (stereo not drawn) [[15]]
- IC50 [2, 10]: 0.88 ± 0.03 µM

Structure (SMILES): CC(O)C(=O)O (stereo not drawn) [lactate]
- Km [8]: 87 mM

Structure (SMILES): O=C(O)c1cccnc1Nc1cccc(C(F)(F)F)c1 [niflumic acid]
- IC50 [9]: > 100 µM
